Experimental data: patent US20220054469A1, “FARNESOID X RECEPTOR AGONISTS AND USES THEREOF” (Metacrine, Inc., priority 2018, published 2022)

Each compound was assayed against T1, hFXR (Homo sapiens, UniProt Q96RI1) (assay: In Vitro FXR Assay (TK)). Conditions: CV-1 cells transfected with hFXR, hRXR, TK-ECRE-luc and pCMX-YFP; incubated with compound for 18 hrs; luminescence.
T1 construct: expressed in transfected cells; host or cells: CV-1 cells
T1 sequence (Q96RI1 1-486): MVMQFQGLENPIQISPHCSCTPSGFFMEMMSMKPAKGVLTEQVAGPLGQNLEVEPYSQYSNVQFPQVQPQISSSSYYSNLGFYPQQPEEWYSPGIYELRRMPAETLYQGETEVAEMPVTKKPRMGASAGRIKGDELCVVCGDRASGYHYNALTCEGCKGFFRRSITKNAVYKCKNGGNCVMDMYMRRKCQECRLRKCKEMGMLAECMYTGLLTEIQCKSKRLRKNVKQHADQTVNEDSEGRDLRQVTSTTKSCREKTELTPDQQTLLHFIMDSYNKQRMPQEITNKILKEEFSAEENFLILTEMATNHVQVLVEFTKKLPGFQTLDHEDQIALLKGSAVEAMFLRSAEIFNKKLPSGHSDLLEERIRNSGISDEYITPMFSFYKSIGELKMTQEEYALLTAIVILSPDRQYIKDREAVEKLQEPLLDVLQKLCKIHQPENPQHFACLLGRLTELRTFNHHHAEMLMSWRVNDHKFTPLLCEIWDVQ
T1 sequence (P19793 1-462 partner): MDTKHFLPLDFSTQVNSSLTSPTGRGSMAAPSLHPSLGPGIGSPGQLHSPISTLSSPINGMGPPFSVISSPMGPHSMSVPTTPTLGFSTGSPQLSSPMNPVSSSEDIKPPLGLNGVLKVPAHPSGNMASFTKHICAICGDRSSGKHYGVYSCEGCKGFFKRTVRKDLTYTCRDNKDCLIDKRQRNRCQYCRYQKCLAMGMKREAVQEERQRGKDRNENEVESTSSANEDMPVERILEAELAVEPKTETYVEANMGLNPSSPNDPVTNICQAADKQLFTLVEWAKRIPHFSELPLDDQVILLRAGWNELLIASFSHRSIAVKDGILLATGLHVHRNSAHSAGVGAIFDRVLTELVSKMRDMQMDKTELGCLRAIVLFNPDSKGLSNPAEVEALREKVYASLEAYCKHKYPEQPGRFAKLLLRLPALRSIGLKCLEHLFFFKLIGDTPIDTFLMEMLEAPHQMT
Type: cell-based
Description: Example B-1: In Vitro FXR Assay (TK)
CV-1 cells were seeded at a density of 2,000,000 cells in a T175 flask with DMEM+10% charcoal double-stripped FBS and incubated at 37° C. in 5% CO2 for 18 h (O/N).
After 18 h of incubation, the medium in the T175 flask was changed with fresh DMEM+10% charcoal super-stripped serum. In a polypropylene tube, 2500 μL OptiMEM (Life Technologies, Cat #31985-062) was combined with expression plasmids for hFXR, hRXR, TK-ECRE-luc and pCMX-YFP. The tube was then briefly vortexed and incubated at room temperature for 5 minutes. Transfection reagent (X-tremeGENE HP from Roche, Cat #06 366 236 001) was added to the OptiMEM/plasmid mixture vortexed and incubated at room temperature for 20 minutes. Following incubation, the transfection reagent/DNA mixture complex was added to cells in the T175 flask and the cells were incubated at 37° C. in 5% CO2 for 18 h (O/N).
Compounds were serially diluted in DMSO and added to transfected CV-1 cells. The cells were then incubated for 18 hrs. The next day cells were lysed and examined for luminescence.

| SMILES | EC50 [nM] |
| --- | --- |
| COc1ccc(C23CCC(CN(c4cccc(-c5cnn(C(C)C)c5)c4)C(=O)[C@H]4CC[C@H](C(=O)O)CC4)(CC2)CC3)cc1C [Compound 4.01, trans-4-((3-(1-Isopropyl-1H-pyrazol-4-yl)phenyl)((4-(4-methoxy-3-methylphenyl)bicyclo[2.2.2]octan-1-yl)methyl)carbamoyl)cyclohexanecarboxylic acid] | ≤ 50 |
| COc1ccc(C23CCC(CN(c4cc(-c5cnn(C(C)(C)C)c5)ccn4)C(=O)[C@H]4CC[C@H](CCC(=O)O)CC4)(CC2)CC3)cc1C [Compound 3.04, trans-3-(4-((4-(1-(tert-Butyl)-1H-pyrazol-4-yl)pyridin-2-yl)((4-(4-methoxy-3-methylphenyl)bicyclo[2.2.2]octan-1-yl)methyl)carbamoyl)cyclohexyl)propanoic acid] | ≤ 50 |
| COc1c(C)cc(C23CCC(CN(c4cc(-c5cnn(C(C)C)c5)ncn4)C(=O)[C@H]4CC[C@H](CC(=O)O)CC4)(CC2)CC3)cc1C [Compound 4.08, trans-2-(4-((6-(1-Isopropyl-1H-pyrazol-4-yl)pyrimidin-4-yl)((4-(4-methoxy-3,5-dimethylphenyl)bicyclo[2.2.2]octan-1-yl)methyl)carbamoyl)cyclohexyl)acetic acid] | 50 to 1000 |
| COc1ccc(C23CCC(CN(c4cc(-n5cc(C(C)C)cn5)ccn4)C(=O)[C@H]4CC[C@H](CC(=O)O)CC4)(CC2)CC3)cc1C [Compound 4.22, trans-2-(4-((4-(4-Isopropyl-1H-pyrazol-1-yl)pyridin-2-yl)((4-(4-methoxy-3-methylphenyl)bicyclo[2.2.2]octan-1-yl)methyl)carbamoyl)cyclohexyl)acetic acid] | 50 to 1000 |
| COc1ccc(C23CCC(CN(c4cc(-c5coc(C(C)(C)C)n5)ccn4)C(=O)[C@H]4CC[C@H](CC(=O)O)CC4)(CC2)CC3)cc1C [Compound 4.18, trans-2-(4-((4-(2-(tert-Butyl)oxazol-4-yl)pyridin-2-yl)((4-(4-methoxy-3-methylphenyl)bicyclo[2.2.2]octan-1-yl)methyl)carbamoyl)cyclohexyl)acetic acid] | ≤ 50 |
| COc1ncc(C23CCC(CN(c4cc(-c5cnn(C(C)(C)C)c5)ccn4)C(=O)[C@H]4CC[C@H](CC(=O)O)CC4)(CC2)CC3)cc1C [Compound 4.13, trans-2-(4-((4-(1-(tert-Butyl)-1H-pyrazol-4-yl)pyridin-2-yl)((4-(6-methoxy-5-methylpyridin-3-yl)bicyclo[2.2.2]octan-1-yl)methyl)carbamoyl)cyclohexyl)acetic acid] | ≤ 50 |
| COc1ccc(C23CCC(CN(c4cc(-c5cnn(C(C)C)c5)ccn4)C(=O)[C@H]4CC[C@H](C(=O)O)CC4)(CC2)CC3)cc1C [Compound 4.02, trans-4-((4-(1-Isopropyl-1H-pyrazol-4-yl)pyridin-2-yl)((4-(4-methoxy-3-methylphenyl)bicyclo[2.2.2]octan-1-yl)methyl)carbamoyl)cyclohexanecarboxylic acid] | ≤ 50 |
| COc1ccc(C23CCC(CN(c4cc(-c5ccn(C(C)C)n5)ccn4)C(=O)[C@H]4CC[C@H](CC(=O)O)CC4)(CC2)CC3)cc1C [Compound 4.23, trans-2-(4-((4-(1-Isopropyl-1H-pyrazol-3-yl)pyridin-2-yl)((4-(4-methoxy-3-methylphenyl)bicyclo[2.2.2]octan-1-yl)methyl)carbamoyl)cyclohexyl)acetic acid] | ≤ 50 |
| COc1ccc(C23CCC(CN(c4cccc(-n5cnc(C6CC6)n5)c4)C(=O)[C@H]4CC[C@H](CC(=O)O)CC4)(CC2)CC3)cc1C [Compound 4.28, trans-2-(4-((3-(3-Cyclopropyl-1H-1,2,4-triazol-1-yl)phenyl)((4-(4-methoxy-3-methylphenyl)bicyclo[2.2.2]octan-1-yl)methyl)carbamoyl)cyclohexyl)acetic acid] | ≤ 50 |
